From patent US6875759B1, “Substituted guanidines and the use thereof” (Kadmus Pharmaceuticals, priority 1999, dated 2005)
Entries after “also recorded” stand apart in the source; their conditions may differ. Like-named read-outs stand apart in the source and are kept apart here.

Assays:
[1] = test system: hormone-independent prostate cancer cell line DU145; assay: In vitro cytotoxicity, MTS (CellTiter 96 Aqueous Proliferation Assay), prostate cancer cells; format: cell-based, human
Protocol: FIG. 1 is a graph which compares the effects of the compound of Example 8 on normal human endothelial cells (AH-9) and human prostate cancer cells (DU145). Cells were exposed to the compound for seven days at the concentrations indicated. Cytotoxicity was assessed using the MTS assay.
In these experiments, cells were seeded at 400 cells per well 24 hours prior to addition of the test compound. Cells were grown at 37° C. in a humidified atmosphere of 95% air, 5% CO2 for 7 days with daily media changes. Cytotoxicity was assessed using the CellTiter 96 Aqueous Proliferation Assay (Promega, Madison, Wis.).
In a separate experiment (FIG. 1), normal human endothelial cells (AH-9) and human prostate cancer cells (DU145) were exposed to increasing concentrations of the compound of Example 8 for seven days.

[2] = Mouse formalin test pain model, late phase; format: in vivo
Protocol: The formalin test was conducted using standard procedures (Hunskaar et al., J. Neurosci. Meth. 14:69-76 (1985). Mice (male CF-1, 20-25 g) were placed in Plexiglass jars for at least 1 hr to accommodate to the environment
The animals received either test drug at 5-50 mg/kg p.o. or the appropriate volume of vehicle (normal saline). Thirty minutes after p.o. dosing mice were injected with formalin (20 μl of 2.5% formaldehyde solution in saline) into the dorsal surface of the right hind paw.
All experiments were done in a blinded manner. The late phase of the formalin response was measured as licking/biting from 10-50 minutes after formalin injection. Differences between groups were analyzed by one-way analysis of variance (ANOVA), A P value ≦0.05 was considered significant. Reduction in the time spent licking/biting in the late phase of the formalin response is considered an indication of a reduction in chronic pain.

[3] = test system: DU145 prostate carcinoma xenografts; assay: Anti-tumor activity in athymic mice bearing DU145 prostate carcinoma; format: in vivo, mouse; conditions: male nude mice; 12.5 mg/kg/d i.p. daily for two weeks; FIG. 3; 12.5 mg/kg/day
Protocol: FIG. 3 is a graph showing the effect of the compound of Example 8, at a dose of zero mg/kg (filled circles) and at a dose of 12.5 mg/kg (open circles), on human prostate cancer xenographs in BALB/C/NU mice.
DU145 tumor cells were injected subcutaneously into the flank of male nude mice (day 0). Palpable tumors develop within 14 days at which time the animals were treated for two weeks with daily intraperitoneal injections of either the compound of Example 8 or the control vehicle. Tumors were measured every two days and volume of tumor was calculated using the formula: Tumor volume=length×[…] At the end of the study, tumors in control mice had nearly tripled in size. […] Mechanism of Action

[4] = test system: human prostate (DU14) cancer cells; format: in vivo; conditions: daily i.p. for five days
Source text: FIG. 2A is a bar graph which depicts the effect of the compound of Example 8 (1-[N,N′-di-p-tolyl)amidino]-4-(trans-1′-cinnamyl)piperizine) on human prostate cancer in BDF/1 mice using the sub-renal capsule assay.
Human cancer cells can be grown in the sub-renal capsule of immuno-competent mice where, for a limited period of time, they escape detection by the mouse's immune system. Thus, the sub-renal capsule assay provides a convenient system to study the effect of drugs on the growth of tumor cells in vivo (Bogden, A. E., et al., Exp. Cell Biol. 47:281 (1979)). Briefly, female BDF mice weighing 18-20g were anesthetized, the left kidney exteriorized and a small nick was made in the kidney capsule for implantation of tumor cells. Approximately 1×10^6 human prostate (DU14) or pancreatic cancer (HS766T) cells were prepared as a fibrinogen-jelled pellet (Stratton, J. A., et al., Gynecol. Oncol. 19:336 (1984); Stratton, J. A., et al., Gynecol. Oncol. 30:416 (1988)) and implanted beneath the renal capsule. […] One day after the final injection, the animals were killed and the tumor volume was measured. Tumor growth was determined by subtracting the initial size of the implant from the size of the implant size following treatment (Stratton, J. A., et al., Gynecol Oncol. 19:336 (1984); Stratton, J. A., et al., Gynecol. Oncol. 30:416 (1988)).

Cc1ccc(N=C(Nc2ccc(C)cc2)N2CCN(C/C=C/c3ccccc3)CC2)cc1 [Example 8, 1-[(N,N′-Di-p-tolyl)amidino]-(trans-1′-cinnamyl)piperizine]
EC50 ([1]; 7 days exposure, MTS, dose causing death to 50% of cells, read-out: Cell Survival ED 50 Prostate): 1300 nM
EC50 ([1]; separate experiment (FIG. 1), seven days, read-out: EC50 cytotoxic activity): 3400 nM
late phase pain versus control vehicle (post-hoc Newman-Kuels test) ([2]; 30 mg/kg orally): different from control vehicle at P<0.05
late phase pain versus control vehicle (post-hoc Newman-Kuels test) ([2]; 50 mg/kg orally): different from control vehicle at P<0.05
effect on general behavior of the animals ([2]; at the doses effective in the formalin test, p.o.): did not affect the general behavior
time spent licking, late phase of formalin response (in words) ([2]; oral administration, 5-50 mg/kg, male CF-1 mice): dose-dependent reduction in the time spent licking
tumor growth in xenograft (in words) [3]: active; also recorded: failed to grow
inhibition of tumor growth ([4]; prostate cancer cell line in mouse sub-renal capsule): greater than 95%
effect on tumor growth (in words) ([4]; prostate implant, FIG. 2A): dose-dependent and highly significant inhibition of tumor growth
